Measured values published in the supplement of paper PMC12463676, “Small-molecule dissolution of stress granules by redox modulation benefits ALS models” (Nature Chemical Biology, 2025).

Experiments:
lipoamide = compound: NC(=O)CCCCC1CCSS1 [lipoamide]; experiment: thermal stability z-score vs DMSO; higher = more thermally stabilized by treatment; conditions: HeLa, lipoamide concentration 100 µM
Experimental: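 Cellular thermal proteome profiling in HeLa cells. Cells were treated with 100 µM lipoamide for 1 h, with or without 1 mM arsenate for a further 1 h, then heated to ten temperatures (37-66.3 °C), and soluble protein was quantified by TMT mass spectrometry relative to 0.1% DMSO controls. The thermal stability score (sum of log2 fold changes minus the abundance score) was transformed to a z-score; mean of n = 3 experiments.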

potassium arsenate = compound: O=[As]([O-])(O)O.[K+] [potassium arsenate]; experiment: as above; conditions: HeLa; arsenate concentration 1 mM
Experimental: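 Cellular thermal proteome profiling in HeLa cells treated with 1 mM arsenate for 1 h (DMSO pretreatment), heated to ten temperatures (37-66.3 °C). Soluble protein was quantified by TMT mass spectrometry relative to DMSO controls; the thermal stability score was transformed to a z-score; mean of n = 3 experiments.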

[1] = arsenate co-treatment: 1 mM arsenate 1 h
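Note: each temperature applied for 3 min, abundance score taken as mean log2 fold change at the two lowest temperatures, z-score obtained by mean subtraction and division by SD.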

Sequence of UniProt Q15185 (Q15185 whole entry): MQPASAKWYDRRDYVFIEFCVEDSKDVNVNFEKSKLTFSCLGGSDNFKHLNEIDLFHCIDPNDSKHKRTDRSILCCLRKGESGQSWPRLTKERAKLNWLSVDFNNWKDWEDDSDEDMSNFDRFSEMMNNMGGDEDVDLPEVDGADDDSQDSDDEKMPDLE
Sequence of UniProt P33908 (P33908 whole entry): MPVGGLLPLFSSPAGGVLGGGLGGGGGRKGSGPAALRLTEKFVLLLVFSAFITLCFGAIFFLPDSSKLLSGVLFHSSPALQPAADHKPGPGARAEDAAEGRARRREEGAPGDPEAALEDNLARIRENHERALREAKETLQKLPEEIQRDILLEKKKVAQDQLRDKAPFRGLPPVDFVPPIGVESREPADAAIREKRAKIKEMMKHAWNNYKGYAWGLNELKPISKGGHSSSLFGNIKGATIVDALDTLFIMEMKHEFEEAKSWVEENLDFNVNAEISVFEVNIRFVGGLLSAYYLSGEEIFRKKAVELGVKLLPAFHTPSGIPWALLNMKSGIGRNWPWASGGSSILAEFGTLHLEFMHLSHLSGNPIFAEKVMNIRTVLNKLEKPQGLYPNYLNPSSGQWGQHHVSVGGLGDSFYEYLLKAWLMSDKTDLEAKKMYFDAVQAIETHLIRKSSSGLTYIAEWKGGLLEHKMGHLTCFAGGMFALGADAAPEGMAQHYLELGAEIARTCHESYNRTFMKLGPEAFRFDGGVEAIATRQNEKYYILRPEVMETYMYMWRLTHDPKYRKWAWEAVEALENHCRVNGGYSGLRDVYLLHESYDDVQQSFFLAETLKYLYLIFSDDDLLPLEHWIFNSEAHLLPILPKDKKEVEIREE
Sequence of UniProt Q96E22 (Q96E22 whole entry): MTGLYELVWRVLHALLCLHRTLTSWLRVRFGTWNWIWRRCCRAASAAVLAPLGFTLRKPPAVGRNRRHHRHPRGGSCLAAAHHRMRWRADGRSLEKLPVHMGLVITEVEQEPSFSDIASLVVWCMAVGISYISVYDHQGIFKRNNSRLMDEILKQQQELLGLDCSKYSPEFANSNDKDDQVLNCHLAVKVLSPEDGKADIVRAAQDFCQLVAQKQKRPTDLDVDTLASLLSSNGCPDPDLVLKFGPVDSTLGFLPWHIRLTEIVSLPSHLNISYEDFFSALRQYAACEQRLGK
Sequence of UniProt P13473 (P13473 whole entry): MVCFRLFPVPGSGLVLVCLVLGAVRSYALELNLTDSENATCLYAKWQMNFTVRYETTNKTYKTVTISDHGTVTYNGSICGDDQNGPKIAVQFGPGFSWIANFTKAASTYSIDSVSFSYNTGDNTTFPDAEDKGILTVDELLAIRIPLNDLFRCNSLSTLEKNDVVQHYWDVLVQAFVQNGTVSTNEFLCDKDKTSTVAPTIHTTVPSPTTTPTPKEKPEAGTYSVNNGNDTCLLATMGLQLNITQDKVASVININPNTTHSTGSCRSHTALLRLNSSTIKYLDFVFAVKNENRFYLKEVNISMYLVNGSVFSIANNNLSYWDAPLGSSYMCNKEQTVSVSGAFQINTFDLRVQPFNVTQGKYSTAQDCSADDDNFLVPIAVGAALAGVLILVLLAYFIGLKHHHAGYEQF
Sequence of UniProt Q15654 (Q15654 whole entry): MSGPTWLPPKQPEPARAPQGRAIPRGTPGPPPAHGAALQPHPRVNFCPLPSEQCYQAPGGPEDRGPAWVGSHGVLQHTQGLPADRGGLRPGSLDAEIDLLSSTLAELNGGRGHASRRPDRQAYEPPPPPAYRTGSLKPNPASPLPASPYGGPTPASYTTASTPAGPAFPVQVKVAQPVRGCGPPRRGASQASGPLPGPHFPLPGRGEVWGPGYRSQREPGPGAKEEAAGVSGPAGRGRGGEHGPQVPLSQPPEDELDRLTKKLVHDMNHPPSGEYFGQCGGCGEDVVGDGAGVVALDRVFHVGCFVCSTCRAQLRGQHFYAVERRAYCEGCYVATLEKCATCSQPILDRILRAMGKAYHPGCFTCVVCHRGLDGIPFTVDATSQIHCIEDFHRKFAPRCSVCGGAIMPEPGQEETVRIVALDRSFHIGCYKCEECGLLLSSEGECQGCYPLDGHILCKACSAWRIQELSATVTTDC
Sequence of UniProt Q8NBF2 (Q8NBF2 whole entry): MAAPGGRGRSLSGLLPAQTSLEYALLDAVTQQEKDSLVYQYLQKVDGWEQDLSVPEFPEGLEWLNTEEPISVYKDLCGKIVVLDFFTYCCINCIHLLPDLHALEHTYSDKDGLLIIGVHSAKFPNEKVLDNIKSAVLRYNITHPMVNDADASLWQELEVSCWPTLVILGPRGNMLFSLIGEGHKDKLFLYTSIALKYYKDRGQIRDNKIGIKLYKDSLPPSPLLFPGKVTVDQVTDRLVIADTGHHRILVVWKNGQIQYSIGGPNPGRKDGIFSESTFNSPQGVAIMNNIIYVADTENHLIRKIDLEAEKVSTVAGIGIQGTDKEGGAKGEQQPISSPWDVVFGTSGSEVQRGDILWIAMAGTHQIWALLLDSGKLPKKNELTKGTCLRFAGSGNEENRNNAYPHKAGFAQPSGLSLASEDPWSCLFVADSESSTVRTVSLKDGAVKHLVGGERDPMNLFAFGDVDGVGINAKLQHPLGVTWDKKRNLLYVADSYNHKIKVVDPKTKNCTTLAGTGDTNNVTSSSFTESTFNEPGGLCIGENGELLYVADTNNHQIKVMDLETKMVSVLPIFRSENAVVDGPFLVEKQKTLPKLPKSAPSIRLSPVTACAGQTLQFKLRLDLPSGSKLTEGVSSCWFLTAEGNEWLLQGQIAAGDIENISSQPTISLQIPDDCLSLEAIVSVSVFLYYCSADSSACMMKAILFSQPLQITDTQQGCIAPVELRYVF
Sequence of UniProt P04818 (P04818 whole entry, looked up): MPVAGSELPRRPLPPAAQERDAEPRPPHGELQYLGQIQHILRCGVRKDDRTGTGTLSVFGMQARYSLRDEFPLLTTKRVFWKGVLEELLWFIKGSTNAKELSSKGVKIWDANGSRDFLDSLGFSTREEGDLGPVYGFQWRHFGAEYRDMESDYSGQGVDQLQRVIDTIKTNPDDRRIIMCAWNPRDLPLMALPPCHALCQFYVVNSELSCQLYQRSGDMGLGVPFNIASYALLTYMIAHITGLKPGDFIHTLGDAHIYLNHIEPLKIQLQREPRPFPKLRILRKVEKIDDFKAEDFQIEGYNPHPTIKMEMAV
Sequence of UniProt O96019 (O96019 whole entry): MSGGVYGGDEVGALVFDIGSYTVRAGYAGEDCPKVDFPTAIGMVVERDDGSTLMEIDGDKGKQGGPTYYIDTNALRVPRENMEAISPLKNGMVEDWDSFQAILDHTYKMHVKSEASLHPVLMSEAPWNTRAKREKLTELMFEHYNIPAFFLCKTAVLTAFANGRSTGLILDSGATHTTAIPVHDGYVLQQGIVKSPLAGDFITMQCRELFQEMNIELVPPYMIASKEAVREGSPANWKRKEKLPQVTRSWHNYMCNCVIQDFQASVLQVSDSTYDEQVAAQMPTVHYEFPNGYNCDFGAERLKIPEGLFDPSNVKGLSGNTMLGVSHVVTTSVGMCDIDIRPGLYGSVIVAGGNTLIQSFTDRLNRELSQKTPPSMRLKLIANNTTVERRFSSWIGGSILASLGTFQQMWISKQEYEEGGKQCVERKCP
Sequence of UniProt Q7L0Y3 (Q7L0Y3 whole entry): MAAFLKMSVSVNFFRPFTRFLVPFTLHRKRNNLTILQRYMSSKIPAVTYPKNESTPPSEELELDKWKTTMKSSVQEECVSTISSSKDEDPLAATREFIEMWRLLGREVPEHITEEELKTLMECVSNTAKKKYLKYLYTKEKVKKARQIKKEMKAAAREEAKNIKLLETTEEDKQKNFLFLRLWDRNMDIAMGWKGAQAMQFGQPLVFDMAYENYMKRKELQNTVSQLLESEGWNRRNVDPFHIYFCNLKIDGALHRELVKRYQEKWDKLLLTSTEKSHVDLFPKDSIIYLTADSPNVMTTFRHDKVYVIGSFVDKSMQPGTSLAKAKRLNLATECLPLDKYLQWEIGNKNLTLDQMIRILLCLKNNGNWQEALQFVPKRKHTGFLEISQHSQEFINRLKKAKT
Sequence of UniProt Q13042 (Q13042 whole entry): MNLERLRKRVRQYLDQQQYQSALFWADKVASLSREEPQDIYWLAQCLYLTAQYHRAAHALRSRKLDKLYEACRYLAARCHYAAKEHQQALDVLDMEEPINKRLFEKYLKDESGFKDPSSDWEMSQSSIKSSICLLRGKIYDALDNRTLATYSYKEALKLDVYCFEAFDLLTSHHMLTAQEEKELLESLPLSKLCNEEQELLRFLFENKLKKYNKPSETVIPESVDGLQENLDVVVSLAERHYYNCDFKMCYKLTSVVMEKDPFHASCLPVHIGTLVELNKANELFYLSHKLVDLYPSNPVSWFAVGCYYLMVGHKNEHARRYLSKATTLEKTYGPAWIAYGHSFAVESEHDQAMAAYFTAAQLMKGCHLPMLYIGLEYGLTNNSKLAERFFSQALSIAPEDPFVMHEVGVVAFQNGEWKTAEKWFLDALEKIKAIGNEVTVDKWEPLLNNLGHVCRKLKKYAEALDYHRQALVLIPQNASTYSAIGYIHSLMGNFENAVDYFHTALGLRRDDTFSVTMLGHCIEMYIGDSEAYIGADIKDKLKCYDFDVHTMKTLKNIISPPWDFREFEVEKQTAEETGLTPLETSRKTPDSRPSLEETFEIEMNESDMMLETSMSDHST
Sequence of UniProt P63151 (P63151 whole entry): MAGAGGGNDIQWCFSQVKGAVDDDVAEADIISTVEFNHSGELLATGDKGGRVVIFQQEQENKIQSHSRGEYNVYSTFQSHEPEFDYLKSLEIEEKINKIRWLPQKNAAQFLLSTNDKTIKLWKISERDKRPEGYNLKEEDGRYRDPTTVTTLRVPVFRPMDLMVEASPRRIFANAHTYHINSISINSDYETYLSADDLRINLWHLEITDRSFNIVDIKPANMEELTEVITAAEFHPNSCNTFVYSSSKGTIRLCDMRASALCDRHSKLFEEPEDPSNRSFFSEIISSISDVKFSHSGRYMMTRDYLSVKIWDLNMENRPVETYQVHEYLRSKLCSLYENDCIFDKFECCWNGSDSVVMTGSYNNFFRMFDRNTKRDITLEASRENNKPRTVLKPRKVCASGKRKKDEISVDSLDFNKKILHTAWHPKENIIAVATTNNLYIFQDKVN

| Target | thermal stability z-score (lipoamide; [1]) | thermal stability z-score (lipoamide; arsenate co-treatment: none) | thermal stability z-score (potassium arsenate) |
| --- | --- | --- | --- |
| ALG14 (UniProt Q96F25) | -0.0836 | -0.394 | -0.257 |
| MAPK8 (UniProt P45983) | 0.24 | 0.00773 | -0.00139 |
| OXSM (UniProt Q9NWU1) | -0.024 | 0.0818 | 0.51 |
| PHPT1 (UniProt Q9NRX4) | 0.922 | 0.553 | -1.95 |
| UAP1 (UniProt Q16222) | 0.373 | 0.0722 | -0.553 |
| TRMT10C (UniProt Q7L0Y3) | -0.602 | -0.191 | 0.226 |
| TRIP6 (UniProt Q15654) | -1.35 | -0.966 | -5.81 |
| MRM3 (UniProt Q9HC36) | -0.128 | -0.165 | -0.218 |
| TIMM17B (UniProt O60830) | 0.0946 | -0.362 | 0.173 |
| FAM21A (UniProt Q641Q2) | 0.0165 | -0.365 | 0.352 |
| RDH13 (UniProt Q8NBN7) | -0.0891 | -0.278 | 0.307 |
| SOWAHC (UniProt Q53LP3) | 0.277 | 0.343 | 0.0878 |
| KNSTRN (UniProt Q9Y448) | -0.729 | -0.171 | 1.36 |
| NTPCR (UniProt Q9BSD7) | -0.0779 | -0.905 | -0.753 |
| GLRX2 (UniProt Q9NS18) | 1.4 | 1.7 | 3.8 |
| NUS1 (UniProt Q96E22) | 0.421 | 0.252 | 0.015 |
| UBE2Z (UniProt Q9H832) | -0.25 | -0.264 | -0.55 |
| MAN1A1 (UniProt P33908) | 0.547 | 0.362 | 0.104 |
| SRM (UniProt P19623) | -0.392 | -0.0266 | -0.141 |
| VDAC3 (UniProt Q9Y277) | 0.0571 | 0.18 | 0.848 |
| NT5C3A (UniProt Q9H0P0) | 0.0681 | 0.155 | -1.77 |
| GLCCI1 (UniProt Q86VQ1) | -0.207 | -0.418 | -0.627 |
| UBQLN2 (UniProt Q9UHD9) | 1.26 | 0.932 | -0.0552 |
| TONSL (UniProt Q96HA7) | -0.0593 | 0.0162 | -0.339 |
| NEURL4 (UniProt Q96JN8) | -0.125 | 0.0814 | 0.00875 |
| USF1 (UniProt P22415) | 0.0459 | -0.169 | 0.149 |
| PTGES3 (UniProt Q15185) | 0.0467 | 0.127 | -0.454 |
| GDI1 (UniProt P31150) | 0.00835 | -0.013 | -0.353 |

| Target | thermal stability z-score (lipoamide; [1]) | thermal stability z-score (lipoamide; arsenate co-treatment: none) | thermal stability z-score (potassium arsenate) |
| --- | --- | --- | --- |
| ARPC3 (UniProt O15145) | 0.0284 | 0.0195 | -0.254 |
| PIR (UniProt O00625) | 3.16 | 2.76 | -1.25 |
| LAMP2 (UniProt P13473) | -0.0628 | -0.138 | 0.0434 |
| ANKRD27 (UniProt Q96NW4) | -0.025 | -0.0854 | -0.276 |
| PCID2 (UniProt Q5JVF3) | -0.297 | 0.217 | 0.809 |
| ACTL6A (UniProt O96019) | 2.1 | 0.96 | -0.336 |
| RPL9 (UniProt P32969) | 0.762 | 0.659 | -0.232 |
| SH3KBP1 (UniProt Q96B97) | 0.46 | 0.0841 | -0.523 |
| DR1 (UniProt Q01658) | 0.466 | 0.257 | -0.043 |
| OSMR (UniProt Q99650) | -1.48 | -0.64 | 1.55 |
| KLF4 (UniProt O43474) | -0.157 | -0.548 | -1.07 |
| EXOSC7 (UniProt Q15024) | 0.482 | 0.0621 | -1.11 |
| CTCF (UniProt P49711) | 0.761 | -0.0166 | -1.14 |
| RPL28 (UniProt P46779) | 0.57 | 0.375 | -0.548 |
| SNAPC1 (UniProt Q16533) | -0.175 | -0.207 | 0.0437 |
| TYMS (UniProt P04818) | 1.42 | 0.818 | 14 |
| CCS (UniProt O14618) | 1.32 | 0.653 | 3.23 |
| SLTM (UniProt Q9NWH9) | 0.712 | -0.493 | -0.561 |
| COPS2 (UniProt P61201) | 0.538 | -0.0451 | 0.0289 |
| AP4M1 (UniProt O00189) | 0.0799 | -0.0232 | -0.173 |
| PPP2R2A (UniProt P63151) | 0.294 | 0.531 | -0.49 |
| NHLRC2 (UniProt Q8NBF2) | -0.233 | 0.152 | -2.19 |
| GTF3C6 (UniProt Q969F1) | 0.05 | -0.0491 | -0.175 |
| SMC5 (UniProt Q8IY18) | 0.427 | -0.175 | 1.83 |
| RBM15 (UniProt Q96T37) | -0.454 | -0.0697 | -0.321 |
| SLC2A3 (UniProt P11169) | 0.481 | 0.126 | -0.293 |
| CDC16 (UniProt Q13042) | 0.159 | 0.0509 | -0.551 |
